Data on 2 molecules can be found in patent US8992891B2, “Therapeutic approaches for treating CMT and related disorders” (Pharnext, priority 2007, dated 2015).

The subject of assay [1] is hemizygous PMP22 transgenic rat (CMT rat). Nature of the assay: Bar test in CMT transgenic rat model. The format is in vivo. As to conditions: CMT rats; for bar test performance compared with the placebo group: 16 weeks of treatment; for improvement of bar test motor performances versus placebo: after 8 weeks of the force-feeding; for bar test performances throughout the treatment procedure: chronic treatment. From the text: Four weeks-old rats transgenic PMP22 rats have been used throughout of the study. Aspects of the study design (randomization, statistics for multiple comparisons, sample size etc.) have been checked to be in line with the recommendations provided in 4th issue of 43rd volume of ILAR Journal (2002), that provides reviews in the field of experimental design and statistics in biomedical research.
The experimental groups are formed with young rats of both genders separately. The rats are assigned to the groups following randomization schedule based on the body weight. In some experiments the randomization is based on the performances of the rats in the bar test.
Both genders are represented by separate control groups that are numerically equal or bigger than the treatment groups.
The animals are weighted twice a week in order to adjust the doses to growing body weight. If the osmotic pump is chosen for the treatment administration, the doses of the drug are calculated on the basis of the estimated mean body weight of the animals expected for their age over the period of the pump duration (6 weeks). The pumps are re-implanted if necessary, with the appropriated aesthesia protocol.
Each three or four weeks the animals are subjected to a behavioural test. Each test is conducted be the same investigator in the same room and at the same time of the day; this homogeneity is maintained throughout entire experiment. All treatments are blinded for the investigator. “Bar test” and “Grip strength” has been mainly used to access the performance throughout study. The schedule of the bar test may change as the animal growth (in order to avoid the bias due to the learning, for example).
The Bar Test evaluates rats' ability to hold on a fix rod. […] The rat is placed on its four paws on the middle of the rod (diameter: 2.5 cm; length: 50 cm; 30 cm above the table). Trials are performed consecutively; the number and the duration of trials in our experiments have been depending on batches of the animals. This variability in the testing have been introduced in order to determine the schedule appropriated to the best detection of the motor deficiency in the CMT rats in the course of the experiments.
Performance indices are recorded on each session: • The number of trials needed to hold for 60 sec (or 30 sec for batch 1, session 1 and 2) on the rod. • The time spent on the bar (i.e. the fall latency) in each trial and the average on the session. In the experimental procedures where the session ends after the rat has stayed for a cut-off time, i.e. 30 or 60 s, on the bar, a performance of the cut-off time (30 s or 60 s) is assigned to trials not completed (eg: for batch 8, for an animal which stays on the bar less than 10 sec on trials 1, 2 and 3, then for 60 sec on trials 4 and 5, 60 s is assigned to trials 6 to 10). • The number of falls.

The test system of another assay is PMP22 mRNA. In words: PMP22 mRNA level by quantitative RT-PCR after drug stimulation of rat Schwann cell primary culture. In kind it is cell-based. Also on record: key: +: significantly decreases PMP22 levels compared to control. Conditions: rat primary Schwann cells, drug incubation 24 hrs. On the procedure:
After cells being platted in 12 well-dishes, the medium is replaced by a defined medium consisting in a mix of DMEM-F12 (Invitrogen #21331020) complemented by 1% of N2 supplement (Invitrogen #17502), 1% L-Glutamine (Invitrogen #25030024) 2.5% FBS (Sciencell #0025), 0.02 μg/ml of corticosterone (Sigma #C2505), 4 μM Forskolin and 50 μg/ml of gentamycin. Growth factors are not added to this medium, to promote SC differentiation
24 hours later, the medium is replaced by a defined medium (DMEM-F12) complemented with 1% Insulin-Transferrin-Selenium-X (ITS, Invitrogen #51300), 16 μg/ml of Putrescine (Sigma #P5780), 0.02 μg/ml of corticosterone and 50 μg/ml of gentamicin. At this step, neither progesterone nor forskolin are present in the medium.
One day later, Schwann cells are stimulated by combinations of drugs or drugs alone during 24 hrs (3 wells/condition). The preparation of each compound is performed just prior to its addition to the cell culture medium.
Drugs are added to a defined medium composed of DMEM-F12, with 1% Insulin-Transferrin-Selenium-X (ITS, Invitrogen #51300), 16 μg/ml of Putrescine, 0.02 μg/ml of corticosterone, 10 nM Progesterone and 50 μg/ml of gentamicin. The absence of Forskolin during drug stimulation avoids adenylate cyclase saturation.
Quantitative RT-PCR is used to compare the levels of PMP22 mRNA after drug stimulation, relative with housekeeping Ribosomal L13A mRNA in rat Schwann cell primary culture.
After rinsing with cold sterilized PBS, total RNAs from each cell sample are extracted and purified from SC using the Qiagen RNeasy micro kit (Qiagen #74004). Nucleic acids are quantified by Nanodrop spectrophotometer using 1 μl of RNA sample. The RNA integrity is determined through a BioAnalyzer (Agilent) apparatus.
RNAs are reverse-transcribed into cDNA according to standard protocol. cDNA templates for PCR amplification are synthesized from 200 ng of total RNA using SuperScript II reverse-transcriptase (Invitrogen #18064-014) for 60 min at 42° C. in the presence of oligo(dT), in a final volume of 20 μl.
cDNAs are subjected to PCR amplification using the ? LightCycler® 480 ? system (Roche Molecular Systems Inc.) Each cDNA are diluted five times before being used for PCR amplification. 2.5 μl of this cDNAs enters the PCR reaction solution (final volume of 10 μl). Preliminary experiments ensured that quantitation was done in the exponential phase of the amplification process for both sequences and that expression of the reference gene was uniform in the different culture conditions.
PCR reaction is performed by amplification of 500 nM of forward primer of rat PMP22 (NM_017037), 5-GGAAACGCGAATGAGGC-3 (SEQ ID NO: 1), and 500 nM of reverse primer 5-GTTCTGTTTGGTTTGGCTT-3 (SEQ ID NO: 2) (amplification of 148-bp). A 152-bp fragment of the RPL13A ribosomal (NM_173340) RNA is amplified in parallel in separate reactions for normalization of the results by using 500 nM of forward primer 5-CTGCCCTCAAGGTTGTG-3 (SEQ ID NO: 3), and 500 nM of reverse primer 5-[…]-3 (SEQ ID NO: 4).
We used FRET chemistry to perform RT-Q-PCR analysis. FRET probes are composed of 0.3 μM of Pmp22-FL-5-[…] (SEQ ID NO: 5) or Rpl13A-FL-5-TCGGGTGGAAGTACCAGCC (SEQ ID NO: 6), labelled at their 3′ end with a donor fluorophore dye (Fluorescein). 0.15 μM Red640 probes are defined as follows: Pmp22-red-5′-[…]- (SEQ ID NO: 7) or Rpl13A-red-5′-[…] (SEQ ID NO: 8), labelled at their 5′ end with an acceptor fluorophore dye (Rhodamine Red 640).
Each PCR reaction contained 2.5 μl cDNA template in a final volume of 10 μl of master mix kit (Roche #04-887301001).
The following PCR conditions are used: 10 sec at 95° C., 10 sec at 63° C. and 12 sec at 72° C. and 30 sec at 40° C. (Forty amplification cycles). The relative levels of PMP22 gene expression is measured by determining the ratio between the products generated from the target gene PMP22 and the endogenous internal standard RPL13A. […]

Consider `Cn1cc[nH]c1=S` [Methimazole], for which, in assay [1], the “first dose shown to be active, as fraction of the dose equivalent to dosage used in human for the canonical indications” value is “one fourth”; the “bar test performance compared with the placebo group” value is “significantly more performing”; the “improvement of bar test motor performances versus placebo” value is on record as “statistically significant”; the “bar test performances throughout the treatment procedure” value is listed as “improved bar test performances”. For the same molecule, the “mRNA (PMP22 expression decrease)” value in the assay with PMP22 mRNA is reported as “+”.

For the molecule `CC[C@@H]1C(=O)OC[C@@H]1Cc1cncn1C` [Pilocarpine], in assay [1], the “first dose shown to be active, as fraction of the dose equivalent to dosage used in human for the canonical indications” value is listed as “one half”; the “bar test performance compared with the placebo group” value is “significantly more performing”; the “improvement of bar test motor performances versus placebo” value is on record as “statistically significant”; the “bar test performances throughout the treatment procedure” value is given as “improved bar test performances”. Further, the “mRNA (PMP22 expression decrease)” value with PMP22 mRNA is on record as “+”.
